In PMC8984819, “Acetylene containing 2-(2-hydrazinyl)thiazole derivatives: design, synthesis, and in vitro and in silico evaluation of antimycobacterial activity against Mycobacterium tuberculosis” (RSC Advances, 2022):
Values after ≈ are worked out from the molar mass of the structure shown. Like-named read-outs stand apart in the source and are kept apart here.

Assays:
[1] = test system: H37Rv strain of Mycobacterium tuberculosis; assay: microbe, parasite or virus in culture; assay type: cell-based; details: for inhibition at 50 µg/mL / inhibition at 100 µg/mL / inhibition at 2 µg/mL: H37RV; for inhibition at 50 µg/mL / inhibition at 100 µg/mL / % Inhibition ± SD: LRP assay; for inhibition at 50 µg/mL / inhibition at 100 µg/mL: read-out: % Inhibition ± SD
in vitro = assay type: cell-based; details: human
Procedure: HEK293 cells were grown in DMEM media containing 10% FBS and L-glutamine–penicillin–streptomycin solution at 37 °C in 5% CO2 condition. To perform MTT assay, 96 well tissue culture plate was seeded with […] number of cells. After 16 hours of seeding, cells were successfully attached to the culture plate and were treated with the active chemical compounds dissolved in DMSO at different concentrations as follows: 25 μg ml^−1, 50 μg ml^−1, 75 μg ml^−1 and 100 μg ml^−1. The cells were also treated with the DMSO to exclude the solvent-induced toxicity and used as an internal control. After 48 hours post active chemical compounds treatment, the MTT assay was performed as described previously.[45] MG-132, a potent proteasomal inhibitor and an inducer of apoptosis[46,47] was used as a positive control in the assay. Wells with media lacking any cells were as used as a negative control in the assay.
Tetrazolium-based […] cytotoxicity (MTT) assay is an important method to evaluate the viability of cells and it was performed for all the active chemical compounds using HEK293. To illustrate the percentage cell viability, the HEK293 cells were incubated with different concentrations of all active chemical compounds for 48 h. The compounds showing the viability of less than 50% of the cells were considered cytotoxic compounds. We observed that maximum compounds (such as 7, 9, 10, 13 and 25) show more than 75% of the cell viability at the highest concentration i.e. 100 μg ml^−1 for 48 hours of the treatment. Similarly, other compounds (such as 5, 6, 22, 26 and 31) show 70% cell viability upon 48 hours of the treatment. […] MG-132, a potent proteasomal inhibitor and an inducer of apoptosis was used as a positive control in the assay.

[2] = Mycobacterium tuberculosis, 50 µg/ml, M. Tb H37Rv
[3] = Mycobacterium tuberculosis, 100 µg/ml, M. Tb H37Rv

Row | Compound | inhibition at 50 µg/mL [1, 2] | inhibition at 100 µg/mL [1, 3] | melting point | also measured
1 | C#CCOc1ccccc1C=O [Compound 1] | 39.3 ± 1.17% |  |  | 
2 | C#CCOc1ccc(C=O)cc1OCC [Compound 2] | 7.73 ± 0.23% | 8.08 ± 0.24% | 74 to 75 °C | 
3 | C#CCOc1ccc(Br)cc1C=O [Compound 3] | 48.7 ± 1.46% | 50.9 ± 1.52% | 92 to 93 °C | 
4 | C#CCOc1ccccc1/C=N/NC(N)=S [Compound 4] | 46.8 ± 1.4% |  | 174 to 176 °C | antitubercular activity against M. Tb (active = 50% RLU reduction and above) ([1]; concentration not given): inactive
5 | C#CCOc1ccc(Br)cc1/C=N/NC(N)=S [Compound 6] | 51.2 ± 1.53% | 56.9 ± 1.7% | 204 to 206 °C | viability at 48 h, 100 μg ml^−1 (in vitro): 70%
6 | C#CCOc1ccccc1/C=N/Nc1nc(-c2ccccc2)cs1 [Compound 7] | 51.7 ± 1.54% |  | 183 to 185 °C | viability at 48 h, 100 μg ml^−1 (in vitro): > 75%
7 | C#CCOc1ccccc1/C=N/Nc1nc(-c2ccc(F)cc2)cs1 [Compound 8] | 38 ± 1.14% |  | 180 to 182 °C | 
8 | C#CCOc1ccccc1/C=N/Nc1nc(-c2ccc(Cl)cc2)cs1 [Compound 9] | 50.8 ± 1.52% |  | 160 to 164 °C | viability at 48 h, 100 μg ml^−1 (in vitro): > 75%
9 | C#CCOc1ccccc1/C=N/Nc1nc(-c2ccc(Cl)c(Cl)c2)cs1 [Compound 10] | 52 ± 1.56% |  |  | viability at 48 h, 100 μg ml^−1 (in vitro): > 75%
10 | C#CCOc1ccccc1/C=N/Nc1nc(-c2ccc(Br)cc2)cs1 [Compound 11] | 49.1 ± 1.47% |  | 144 to 146 °C | 
11 | C#CCOc1ccccc1/C=N/Nc1nc(-c2ccc([N+](=O)[O-])cc2)cs1 [Compound 12] | 29.1 ± 0.87% |  | 185 to 187 °C | 
12 | C#CCOc1ccccc1/C=N/Nc1nc(-c2ccc(C#N)cc2)cs1 [Compound 13] | 54.3 ± 1.62% |  | 150 to 152 °C | viability at 48 h, 100 μg ml^−1 (in vitro): > 75%
13 | C#CCOc1ccccc1/C=N/Nc1nc(-c2ccc(C)cc2)cs1 [Compound 14] | 38.2 ± 1.14% |  |  | 
14 | C#CCOc1ccccc1/C=N/Nc1nc(-c2ccc(OC)cc2)cs1 [Compound 15] | 10.3 ± 0.3% |  | 181 to 183 °C | 
15 | C#CCOc1ccc(/C=N/Nc2nc(-c3ccccc3)cs2)cc1OCC [Compound 16] | 40.5 ± 1.21% | 48.7 ± 1.46% |  | 
16 | C#CCOc1ccc(/C=N/Nc2nc(-c3ccc(F)cc3)cs2)cc1OCC [Compound 17] | 2.06 ± 0.06% | 11.4 ± 0.34% | 152 to 154 °C | 
17 | C#CCOc1ccc(/C=N/Nc2nc(-c3ccc(Cl)cc3)cs2)cc1OCC [Compound 18] | 6.36 ± 0.19% | 17.8 ± 0.53% |  | 

Row | Compound | inhibition at 50 µg/mL [1, 2] | inhibition at 100 µg/mL [1, 3] | melting point | also measured
18 | C#CCOc1ccc(/C=N/Nc2nc(-c3ccc(Cl)c(Cl)c3)cs2)cc1OCC [Compound 19] | 2.38 ± 0.07% | 7.21 ± 0.21% | 153 to 155 °C | 
19 | C#CCOc1ccc(/C=N/Nc2nc(-c3ccc(Br)cc3)cs2)cc1OCC [Compound 20] | 7.35 ± 0.22% | 12.1 ± 0.36% |  | 
20 | C#CCOc1ccc(/C=N/Nc2nc(-c3ccc([N+](=O)[O-])cc3)cs2)cc1OCC [Compound 21] | 48.7 ± 1.46% | 50.9 ± 1.52% | 191 to 193 °C | 
21 | C#CCOc1ccc(/C=N/Nc2nc(-c3ccc(C#N)cc3)cs2)cc1OCC [Compound 22] | 50.9 ± 1.52% | 57.2 ± 1.71% |  | viability at 48 h, 100 μg ml^−1 (in vitro): 70%
22 | C#CCOc1ccc(/C=N/Nc2nc(-c3ccc(C)cc3)cs2)cc1OCC [Compound 23] | 8.72 ± 0.26% | 10.5 ± 0.31% | 166 to 168 °C | 
23 | C#CCOc1ccc(/C=N/Nc2nc(-c3ccc(OC)cc3)cs2)cc1OCC [Compound 24] | 5.64 ± 0.16% | 33 ± 0.98% | 183 to 185 °C | 
24 | C#CCOc1ccc(Br)cc1/C=N/Nc1nc(-c2ccccc2)cs1 [Compound 25] | 61% | 66.2 ± 1.98% | 195 to 197 °C | % Inhibition ± SD ([1]; 50 µg/ml, M. Tb H37Rv): 61.86 ± 1.85%; MIC ([1]; Mycobacterium tuberculosis, concentration giving 50% inhibition of M. Tb H37Rv): 50 µg/mL (≈ 121 µM); viability at 48 h, 100 μg ml^−1 (in vitro): > 75%
25 | C#CCOc1ccc(Br)cc1/C=N/Nc1nc(-c2ccc(F)cc2)cs1 [Compound 26] | 50.7 ± 1.52% | 57.7 ± 1.73% | 207 to 209 °C | viability at 48 h, 100 μg ml^−1 (in vitro): 70%
26 | C#CCOc1ccc(Br)cc1/C=N/Nc1nc(-c2ccc(Cl)cc2)cs1 [Compound 27] | 38.1 ± 1.14% | 52.7 ± 1.58% | 209 to 211 °C | % Inhibition ± SD ([1]; 100 µg/ml, M. Tb H37Rv): 50%
27 | C#CCOc1ccc(Br)cc1/C=N/Nc1nc(-c2ccc(Cl)c(Cl)c2)cs1 [Compound 28] | 43.8 ± 1.31% | 50.2 ± 1.5% | 213 to 215 °C | % Inhibition ± SD ([1]; 100 µg/ml, M. Tb H37Rv): 50%
28 | C#CCOc1ccc(Br)cc1/C=N/Nc1nc(-c2ccc(Br)cc2)cs1 [Compound 29] | 27.1 ± 0.81% | 37.2 ± 1.11% | 208 to 210 °C | 
29 | C#CCOc1ccc(Br)cc1/C=N/Nc1nc(-c2ccc(C#N)cc2)cs1 [Compound 30] | 43.7 ± 1.31% | 48.7 ± 1.46% | 199 to 201 °C | 
30 | C#CCOc1ccc(Br)cc1/C=N/Nc1nc(-c2ccc(C)cc2)cs1 [Compound 31] | 54.9 ± 1.64% | 56.3 ± 1.68% | 191 to 193 °C | % Inhibition ± SD ([1]; 50 µg/ml, M. Tb H37Rv): 54%; viability at 48 h, 100 μg ml^−1 (in vitro): 70%
31 | C#CCOc1ccc(Br)cc1/C=N/Nc1nc(-c2ccc(OC)cc2)cs1 [Compound 32] | 43.7 ± 1.31% | 48.7 ± 1.46% | 184 to 187 °C | 
32 | NNC(=O)c1ccncc1 [INH, isoniazid, reference compound] |  |  |  | inhibition at 2 µg/mL ([1]; Mycobacterium tuberculosis, at 2 µg/ml, reference drugs, M. Tb H37Rv, read-out: % Inhibition): > 99%
33 | CO[C@H]1/C=C/O[C@@]2(C)Oc3c(C)c(O)c4c(O)c(c(/C=N/N5CCN(C)CC5)c(O)c4c3C2=O)NC(=O)/C(C)=C\C=C\[C@H](C)[C@H](O)[C@@H](C)[C@@H](O)[C@@H](C)[C@H](OC(C)=O)[C@@H]1C [RIF, rifampicin, reference compound] |  |  |  | inhibition at 2 µg/mL ([1]; Mycobacterium tuberculosis): > 99%
